Data: patent US11230543B2, “Biaryl monobactam compounds and methods of use thereof for the treatment of bacterial infections” (priority 2015, dated 2022)
Where a name gives a salt, the structure may show the parent alone.

Columns and labels:
[1] = system: Klebsiella pneumoniae expressing KPC-1 (CL6569); assay: Antibiotic activity: growth inhibitory concentration (OD600), Klebsiella pneumoniae CL6569; assay type: cell-based; conditions: lowest concentration inhibiting 95% of bacterial growth; in the presence of β lactamase inhibitor Relebactam 4 μg/mL; 35±2° C. for 22 hours; tested range 100 μM to 0.098 μM
Experimental: (§1) Antibiotic Activity: Determination of Growth Inhibitory Concentration
(§2) The concentrations of compounds required to inhibit the growth of various strains of bacteria were determined in an assay that assessed bacterial growth by measuring optical density at 600 nm (OD600). The bacterial strains tested included the clinical strains Escherichia coli expressing NDM-1 (CLB30016), Klebsiella pneumoniae expressing KPC-1 (CL6569), Acinetobacter baumannii expressing TEM-1, AmpC, and Oxa-24/40 (CL6188) and Pseudomonas aeruginosa expressing AmpC (CL5701). All compounds were tested in the presence of a β lactamase inhibitor (BLi, Relebactam) in 384-well microplates. The clinical strains were stored as frozen single use stocks, thawed and diluted into 1.1× cation-adjusted Mueller-Hinton II broth to achieve approximately 2×10^5 CFU/mL. Test compounds were dissolved in DMSO and diluted 1:50 in the assay, resulting in a final concentration range of 100 μM to 0.098 μM. On the day of the assay, 1 μL of test compound was added to the plate followed by 4 μL of 50 μg/mL BLi in MOPS buffer and 45 μL of diluted bacteria. Plates were centrifuged at 1000 rpm for 30 seconds, shaken at approximately 800 rpm for 1 minute, and incubated at 35±2° C. for 22 hours. The concentration of BLi used in the assay was 4 μg/mL. At the end of the incubation, absorbance at 600 nm was determined using a spectrophotometer. Inhibition was quantitated by identifying the lowest concentration of test compound that was required to inhibit 95% of the growth of the bacteria. The results for Examples 1-126 are reported in Table I, expressed as the concentration of compound that inhibited 95% of bacterial growth (Minimum Inhibitory Threshold Concentration; MITC95).

[2] = system: Pseudomonas aeruginosa expressing AmpC (CL5701); assay: Antibiotic activity: growth inhibitory concentration (OD600), Pseudomonas aeruginosa CL5701; assay type: cell-based; conditions: lowest concentration inhibiting 95% of bacterial growth; in the presence of β lactamase inhibitor Relebactam 4 μg/mL; 35±2° C. for 22 hours; tested range 100 μM to 0.098 μM
Experimental: as §1, §2

SMILES | KP_CL6569 MITC95 [1] [µM] | PA_CL5701 MITC95 [2] [µM]
C[n+]1cc(-c2ccc(OC[C@H](O/N=C(\C(=O)N[C@@H]3C(=O)N(OS(=O)(=O)O)C3(C)C)c3csc(N)n3)C(=O)O)cc2)ccc1CCCN [Example 88, (S)-3-((Z)-2-(((S)-2-(4-(6-(3-aminopropyl)-1-methylpyridin-1-ium-3-yl)phenoxy)-1-carboxyethoxy)imino)-2-(2-aminothiazol-4-yl)acetamido)-2,2-dimethyl-4-oxoazetidin-1-yl sulfate] | 0.3906 | 3.125
C[n+]1cc(-c2ccc(OC[C@H](O/N=C(\C(=O)N[C@@H]3C(=O)N(OS(=O)(=O)[O-])C3(C)C)c3csc(N)n3)C(=O)O)cc2)ccc1NCCN [Example 66, (S)-3-((Z)-2-(((S)-2-(4-(6-((2-aminoethyl)amino)-1-methylpyridin-1-ium-3-yl)phenoxy)-1-carboxyethoxy)imino)-2-(2-aminothiazol-4-yl)acetamido)-2,2-dimethyl-4-oxoazetidin-1-yl sulfate] | 0.2135 | 1.708
C[C@@H]1[C@H](NC(=O)/C(=N\O[C@@](C)(COc2ccc(-c3cn(CCCN)[n+](C)c3)cc2)C(=O)O)c2csc(N)n2)C(=O)N1S(=O)(=O)O.O=C([O-])C(F)(F)F [Example 25, 1-(3-aminopropyl)-4-(4-((S)-2-((((Z)-1-(2-aminothiazol-4-yl)-2-(((2R,3S)-2-methyl-4-oxo-1-sulfoazetidin-3-yl)amino)-2-oxoethylidene)amino)oxy)-2-carboxypropoxy)phenyl)-2-methyl-1H-pyrazol-2-ium 2,2,2-trifluoroacetate] | 0.3906 | 3.125
COP(=O)(O)[C@H](COc1ccc(-c2cn(CCCN)[n+](C)c2)cc1)O/N=C(\C(=O)N[C@@H]1C(=O)N(OS(=O)(=O)O)C1(C)C)c1csc(N)n1.O=C(O)C(F)(F)F [Example 41, (3S)-3-((Z)-2-(((1R)-2-(4-(1-(3-aminopropyl)-2-methyl-1H-pyrazol-2-ium-4-yl)phenoxy)-1-(hydroxy(methoxy)phosphoryl)ethoxy)imino)-2-(2-aminothiazol-4-yl)acetamido)-2,2-dimethyl-4-oxoazetidin-1-yl sulfate compound with 2,2,2-trifluoroacetic acid (1:1)] | 1.563 | 25
C[n+]1c(N)c(-c2ccc(OC[C@H](O/N=C(\C(=O)N[C@@H]3C(=O)N(OS(=O)(=O)[O-])C3(C)C)c3nc(N)sc3Cl)C(=O)O)cc2)cn1CCCN [Example 49, (S)-3-((Z)-2-(((S)-2-(4-(3-Amino-1-(3-aminopropyl)-2-methyl-1H-pyrazol-2-ium-4-yl)phenoxy)-1-carboxyethoxy)imino)-2-(2-amino-5-chlorothiazol-4-yl)acetamido)-2,2-dimethyl-4-oxoazetidin-1-yl sulfate] | 0.7813 | 6.25
Cn1c(-c2ccc(OC[C@H](O/N=C(\C(=O)N[C@@H]3C(=O)N(OS(=O)(=O)O)C3(C)C)c3csc(N)n3)C(=O)O)cc2)cn(CC(CN)CN)c1=N [Example 55, (S)-3-(4-(1-(3-amino-2-(aminomethyl)propyl)-2-imino-3-methyl-2,3-dihydro-1H-imidazol-4-yl)phenoxy)-2-((((Z)-1-(2-aminothiazol-4-yl)-2-(((S)-2,2-dimethyl-4-oxo-1-(sulfooxy)azetidin-3-yl)amino)-2-oxoethylidene)amino)oxy)propanoic acid] | 0.1953 | 1.563
CC(CN)Nc1ccc(-c2ccc(OC[C@H](O/N=C(\C(=O)N[C@@H]3C(=O)N(OS(=O)(=O)[O-])C3(C)C)c3csc(N)n3)C(=O)O)cc2)c[n+]1C (stereo partly drawn) [Example 76, (3S)-3-((Z)-2-(((1S)-2-(4-(6-((1-aminopropan-2-yl)amino)-1-methylpyridin-1-ium-3-yl)phenoxy)-1-carboxyethoxy)imino)-2-(2-aminothiazol-4-yl)acetamido)-2,2-dimethyl-4-oxoazetidin-1-yl sulfate] | 0.1953 | 3.125
Cc1cn(CCCN)[n+](C)c1-c1ccc(OC[C@H](O/N=C(\C(=O)N[C@@H]2C(=O)N(OS(=O)(=O)O)C2(C)C)c2csc(N)n2)C(=O)O)cc1.O=C([O-])C(F)(F)F [Example 19, 1-(3-aminopropyl)-3-(4-((S)-2-((((Z)-1-(2-aminothiazol-4-yl)-2-(((S)-2,2-dimethyl-4-oxo-1-(sulfooxy)azetidin-3-yl)amino)-2-oxo-ethylidene)amino)oxy)-2-carboxyethoxy)phenyl)-2,4-dimethyl-1H-pyrazol-2-ium 2,2,2-trifluoroacetate] | 0.7813 | 12.5
CC1(C)[C@H](NC(=O)/C(=N\O[C@@H](COc2ccc(-c3ccc(C(=O)NC(CN)CN)nc3)cc2)C(=O)O)c2csc(N)n2)C(=O)N1OS(=O)(=O)O [Example 81, (S)-2-((((Z)-1-(2-aminothiazol-4-yl)-2-(((S)-2,2-dimethyl-4-oxo-1-(sulfooxy)azetidin-3-yl)amino)-2-oxoethylidene)amino)oxy)-3-(4-(6-((1,3-diaminopropan-2-yl)carbamoyl)pyridin-3-yl)phenoxy)propanoic acid] | 0.1953 | 3.125
Cn1c(-c2ccc(OC[C@H](O/N=C(\C(=O)N[C@@H]3C(=O)N(OS(=O)(=O)O)C3(C)C)c3csc(N)n3)C(=O)O)cc2F)cn(CCCN)c1=N [Example 96, (S)-3-(4-(1-(3-aminopropyl)-2-imino-3-methyl-2,3-dihydro-1H-imidazol-4-yl)-3-fluorophenoxy)-2-((((Z)-1-(2-aminothiazol-4-yl)-2-(((S)-2,2-dimethyl-4-oxo-1-(sulfooxy)azetidin-3-yl)amino)-2-oxoethylidene)amino)oxy)propanoic acid] | 0.3906 | 6.25
C[n+]1c(N)c(-c2ccc(OC[C@H](O/N=C(\C(=O)N[C@@H]3C(=O)N(OS(=O)(=O)[O-])C3(C)C)c3csc(N)n3)C(=O)O)cc2)cn1CCCN [Example 28, (S)-3-((Z)-2-(((S)-2-(4-(3-Amino-1-(3-aminopropyl)-2-methyl-1H-pyrazol-2-ium-4-yl)phenoxy)-1-carboxyethoxy)imino)-2-(2-aminothiazol-4-yl)acetamido)-2,2-dimethyl-4-oxoazetidin-1-yl sulfate] | 0.2 | 3.13
CC1(C)[C@H](NC(=O)/C(=N\O[C@@H](COc2ccc(-c3ccnc(NCCCN)c3)cc2)C(=O)O)c2csc(N)n2)C(=O)N1OS(=O)(=O)O [Example 64, (S)-3-((Z)-2-(((S)-2-(4-(2-((3-aminopropyl)amino)pyridin-4-yl)phenoxy)-1-carboxyethoxy)imino)-2-(2-aminothiazol-4-yl)acetamido)-2,2-dimethyl-4-oxoazetidin-1-yl sulfate] | 1.563 | 12.5
CC1(C)[C@H](NC(=O)/C(=N\O[C@@H](COc2ccc(Oc3cc[n+](CCCN)cc3)nc2)C(=O)O)c2csc(N)n2)C(=O)N1OS(=O)(=O)O.O=C([O-])C(F)(F)F [Example 34, 1-(3-aminopropyl)-4-((5-((S)-2-((((Z)-1-(2-aminothiazol-4-yl)-2-(((S)-2,2-dimethyl-4-oxo-1-(sulfooxy)azetidin-3-yl)amino)-2-oxoethylidene)amino)oxy)-2-carboxyethoxy)pyridin-2-yl)oxy)pyridin-1-ium 2,2,2-trifluoroacetate] | 0.78 | 25
CC1(C)[C@H](NC(=O)/C(=N\O[C@@](C)(COc2ccc(C3CN=C(NCCN)NC3)cc2)C(=O)O)c2csc(N)n2)C(=O)N1OS(=O)(=O)O (stereo partly drawn) [Example 95, (2S)-3-(4-(2-((2-aminoethyl)amino)-1,4,5,6-tetrahydropyrimidin-5-yl)phenoxy)-2-((((Z)-1-(2-aminothiazol-4-yl)-2-(((S)-2,2-dimethyl-4-oxo-1-(sulfooxy)azetidin-3-yl)amino)-2-oxoethylidene)amino)oxy)-2-methylpropanoic acid] | 0.3906 | 3.125
CC1(C)[C@H](NC(=O)/C(=N\O[C@@H](COc2ccc(-c3cnc(NCCN)nc3)cc2)C(=O)O)c2csc(N)n2)C(=O)N1OS(=O)(=O)O [Example 70, (S)-3-(4-(2-((2-aminoethyl)amino)pyrimidin-5-yl)phenoxy)-2-((((Z)-1-(2-aminothiazol-4-yl)-2-(((S)-2,2-dimethyl-4-oxo-1-(sulfooxy)azetidin-3-yl)amino)-2-oxoethylidene)amino)oxy)propanoic acid] | 0.7813 | 6.25
